# Results from US9790201B2, “Piperidine and azepine derivatives as prokineticin receptor modulators” (TAKEDA PHARMACEUTICAL COMPANY LIMITED, priority 2013, dated 2017).
# Molecular target: human PKR1 receptors (Homo sapiens (Human), UniProt Q8TCW9)
# Test: PKR1 antagonist assay: block of PK1-mediated intracellular calcium release (FLIPR Tetra)
# Type: cell-based
# Settings: RBL2H3 cells expressing human PKR1; stimulation with PK1 at EC80; calcium fluorescence
# In short: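 RBL2H3 cells expressing human PKR1, loaded 1 h at 37 °C with Calcium 5 dye plus 1 mM probenecid in HBSS/25 mM HEPES/0.1% BSA, pH 7.4. Compounds (0.32 nM–10 µM final) preincubated 10 min, then PK1 added at EC80; fluorescence read at 525 nm (excitation 485 nm).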
# Sequence of human PKR1 receptors (Q8TCW9 whole entry): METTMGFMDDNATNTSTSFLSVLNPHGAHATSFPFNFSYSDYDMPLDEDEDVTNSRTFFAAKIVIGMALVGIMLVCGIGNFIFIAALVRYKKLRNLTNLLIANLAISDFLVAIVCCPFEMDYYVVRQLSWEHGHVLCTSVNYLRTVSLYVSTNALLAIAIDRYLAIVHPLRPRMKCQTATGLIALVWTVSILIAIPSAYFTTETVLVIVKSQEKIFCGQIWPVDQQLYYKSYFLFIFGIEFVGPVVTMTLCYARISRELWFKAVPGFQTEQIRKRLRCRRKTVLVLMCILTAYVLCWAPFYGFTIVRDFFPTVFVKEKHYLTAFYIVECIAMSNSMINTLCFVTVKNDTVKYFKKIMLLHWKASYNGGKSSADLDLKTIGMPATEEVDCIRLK
row,IC50 [nM],Structure (SMILES)
1,1270,"CNc1cc(C(=O)N2CCCCC(c3ccc(OC)cc3)C2)cnn1 (stereo not drawn) [Example 112, 5-{[3-(4-Methoxyphenyl)azepan-1-yl]carbonyl}-N-methylpyridazin-3-amine]"
2,930,"CNc1cc(C(=O)N2CCCCC(c3ccc(Cl)cc3)C2)cnn1 (stereo not drawn) [Example 113, 5-{[3-(4-Chlorophenyl)azepan-1-yl]carbonyl}-N-methylpyridazin-3-amine]"
3,1430,"COc1ccc(C2CCCCN(C(=O)c3cnnc(N(C)C)c3)C2)cc1 (stereo not drawn) [Example 114, 5-{[3-(4-Methoxyphenyl)azepan-1-yl]carbonyl}-N,N-dimethylpyridazin-3-amine]"
4,1440,"CN(C)c1cc(C(=O)N2CCCCC(c3ccc(Cl)cc3)C2)cnn1 (stereo not drawn) [Example 115, 5-{[3-(4-Chlorophenyl)azepan-1-yl]carbonyl}-N,N-dimethylpyridazin-3-amine]"
5,1360,"Cc1cc(Cl)ccc1C1(O)CCCN(C(=O)c2ccnc(N(C)C)c2)C1 (stereo not drawn) [Example 116, 3-(4-Chloro-2-methylphenyl)-1-{[2-(dimethylamino)pyridin-4-yl]carbonyl}piperidin-3-ol]"
6,3940,"CN(C)c1cc(C(=O)N2CCCC(O)(c3ccc(F)cc3)C2)ccn1 (stereo not drawn) [Example 117, 1-{[2-(Dimethylamino)pyridin-4-yl]carbonyl}-3-(4-fluorophenyl)piperidin-3-ol]"
